Measurements taken from patent US20240083857A1, “2-Methyl-Quinazolines” (Bayer Pharma Aktiengesellschaft, priority 2017, published 2024).

How the values were obtained:
[1] = molecular target: K-Ras^G12C : hSOS1 interaction (Homo sapiens, UniProt Q07889); experiment: Biochemical assay 1: K-Ras^G12C interaction assay with hSOS1 (HTRF); type: binding; settings: read-out: Assay 1 (KRAS-SOS Interaction) activity expressed as IC50
[2] = molecular target: human SOS1 (loading of human K-Ras^G12C-GDP with fluorescent GTP-analog) (Homo sapiens, UniProt Q07889); experiment: Biochemical assay 3: K-Ras^G12C activation assay by hSOS1 (HTRF); settings: no GTP; for IC50: read-out: Assay 3 (KRAS-Activation by SOS no GTP) activity expressed as IC50; for inhibition at 20 µM: read-out: Assay 3 (KRAS-Activation by SOS no GTP) activity expressed as % inhibition at 20 μM

| SMILES | IC50 [1] [nM] | IC50 [2] [nM] | inhibition at 20 µM [2] [%] |
| --- | --- | --- | --- |
| COc1cc2nc(C)nc(NC(C)c3ccc(-c4ccccc4CN4CCC(N(C)C)C4)s3)c2cc1OC (stereo not shown) [Example 238, N-{1-[5-(2-{[3-(dimethylamino)pyrrolidin-1-yl]methyl}phenyl)thiophen-2-yl]ethyl}-6,7-dimethoxy-2-methylquinazolin-4-amine] | 81.6 | 216 | – |
| COc1cc2nc(C)nc(NC(C)c3csc(Br)c3)c2cc1OC (stereo not shown) [Example 239, N-[1-(5-bromothiophen-3-yl)ethyl]-6,7-dimethoxy-2-methylquinazolin-4-amine] | 7070 | 14300 | – |
| COc1cc2nc(C)nc(NC(C)c3ccc(-c4ccccc4C(N)=O)s3)c2cc1OC (stereo not shown) [Example 240, 2-(5-{1-[(6,7-dimethoxy-2-methylquinazolin-4-yl)amino]ethyl}thiophen-2-yl)benzamide] | 3210 | 7570 | – |
| COc1cc2nc(C)nc(NC(C)c3ccc(-c4cccc(C(N)=O)c4)s3)c2cc1OC (stereo not shown) [Example 241, 3-(5-{1-[(6,7-dimethoxy-2-methylquinazolin-4-yl)amino]ethyl}thiophen-2-yl)benzamide] | 1120 | 1310 | – |
| COc1cc2nc(C)nc(NC(C)c3ccc(-c4ccc(C(N)=O)cc4)s3)c2cc1OC (stereo not shown) [Example 242, 4-(5-{1-[(6,7-dimethoxy-2-methylquinazolin-4-yl)amino]ethyl}thiophen-2-yl)benzamide] | 1830 | 3010 | – |
| COc1cc2nc(C)nc(NC(C)c3ccc(-c4ccccc4N)s3)c2cc1OC (stereo not shown) [Example 243, N-{1-[5-(2-aminophenyl)thiophen-2-yl]ethyl}-6,7-dimethoxy-2-methylquinazolin-4-amine] | 252 | 418 | – |
| COc1cc2nc(C)nc(NC(C)c3ccc(-c4ccccc4CO)s3)c2cc1OC (stereo not shown) [Example 244, [2-(5-{1-[(6,7-dimethoxy-2-methylquinazolin-4-yl)amino]ethyl}thiophen-2-yl)phenyl]methanol] | 282 | 444 | – |
| COc1cc2nc(C)nc(NC(C)c3ccc(-c4ccccc4C#N)s3)c2cc1OC (stereo not shown) [Example 245, 2-(5-{1-[(6,7-dimethoxy-2-methylquinazolin-4-yl)amino]ethyl}thiophen-2-yl)benzonitrile] | 592 | 918 | – |
| COc1cc2nc(C)nc(NC(C)c3ccc(-c4cccc5cn[nH]c45)s3)c2cc1OC (stereo not shown) [Example 246, N-{1-[5-(1H-indazol-7-yl)thiophen-2-yl]ethyl}-6,7-dimethoxy-2-methylquinazolin-4-amine] | 7590 | – | 44 |
| COc1cc2nc(C)nc(NC(C)c3ccc(-c4cccc5[nH]ncc45)s3)c2cc1OC (stereo not shown) [Example 247, N-{1-[5-(1H-indazol-4-yl)thiophen-2-yl]ethyl}-6,7-dimethoxy-2-methylquinazolin-4-amine] | 591 | 2700 | – |
| C=Cc1ccccc1-c1ccc(C(C)Nc2nc(C)nc3cc(OC)c(OC)cc23)s1 (stereo not shown) [Example 248, N-{1-[5-(2-ethenylphenyl)thiophen-2-yl]ethyl}-6,7-dimethoxy-2-methylquinazolin-4-amine] | 1490 | 8430 | – |
| COc1cc2nc(C)nc(NC(C)c3ccc(-c4cnn(CC(N)=O)c4)s3)c2cc1OC (stereo not shown) [Example 249, 2-[4-(5-{1-[(6,7-dimethoxy-2-methylquinazolin-4-yl)amino]ethyl}thiophen-2-yl)-1H-pyrazol-1-yl]acetamide] | 6100 | 8790 | – |
| CNCc1ccccc1-c1ccc(C(C)Nc2nc(C)nc3cc(OC)c(OC)cc23)s1 (stereo not shown) [Example 250, 6,7-dimethoxy-2-methyl-N-[1-(5-{2-[(methylamino)methyl]phenyl}thiophen-2-yl)ethyl]quinazolin-4-amine] | 50 | 70.4 | – |
| COc1cc2nc(C)nc(NC(C)c3csc(-c4cnn(CCO)c4)c3)c2cc1OC (stereo not shown) [Example 251, 2-[4-(4-{1-[(6,7-dimethoxy-2-methylquinazolin-4-yl)amino]ethyl}thiophen-2-yl)-1H-pyrazol-1-yl]ethanol] | 4570 | – | 52 |
| COc1cc2nc(C)nc(NC(C)c3ccc(-c4ccccc4CN)s3)c2cc1OC (stereo not shown) [Example 252, N-[1-{5-[2-(aminomethyl)phenyl]thiophen-2-yl}ethyl]-6,7-dimethoxy-2-methylquinazolin-4-amine] | 80.2 | 103 | – |
| COc1cc2nc(C)nc(NC(C)c3csc(-c4cnc5n4CCC5)c3)c2cc1OC (stereo not shown) [Example 253, N-{1-[5-(6,7-dihydro-5H-pyrrolo[1,2-a]imidazol-3-yl)thiophen-3-yl]ethyl}-6,7-dimethoxy-2-methylquinazolin-4-amine] | 1310 | 5800 | – |
| COc1cc2nc(C)nc(NC(C)c3csc(-c4cnn(CCN5CCCC5)c4)c3)c2cc1OC (stereo not shown) [Example 254, 6,7-dimethoxy-2-methyl-N-[1-(5-{1-[2-(pyrrolidin-1-yl)ethyl]-1H-pyrazol-4-yl}thiophen-3-yl)ethyl]quinazolin-4-amine] | 814 | 3450 | – |
| COc1cc2nc(C)nc(NC(C)c3csc(-c4ccc(F)cc4CN)c3)c2cc1OC (stereo not shown) [Example 255, N-[1-{5-[2-(aminomethyl)-4-fluorophenyl]thiophen-3-yl}ethyl]-6,7-dimethoxy-2-methylquinazolin-4-amine] | 248 | 390 | – |
| COc1cc2nc(C)nc(N[C@H](C)c3cccc(-c4cnn(CCO)c4)c3)c2cc1OC [Example 256, 2-[4-(3-{(1R)-1-[(6,7-dimethoxy-2-methylquinazolin-4-yl)amino]ethyl}phenyl)-1H-pyrazol-1-yl]ethanol] | 473 | 1350 | – |
| COc1cc2nc(C)nc(N[C@H](C)c3cccc(-c4cnn(CCN5CCCC5)c4)c3)c2cc1OC [Example 257, 6,7-dimethoxy-2-methyl-N-[(1R)-1-(3-{1-[2-(pyrrolidin-1-yl)ethyl]-1H-pyrazol-4-yl}phenyl)ethyl]quinazolin-4-amine] | 363 | 852 | – |
